Earlier results as cited in patent publication US20090026122A1, “BIOCOMPATIBLE SOLID-PHASE MICROEXTRACTION COATINGS AND METHODS FOR THEIR PREPARATION” (Janusz, priority 2002, published 2009).

Tested on: plasma proteins
Settings: previously published values

SMILES: CN(C)C(=O)C(CCN1CCC(O)(c2ccc(Cl)cc2)CC1)(c1ccccc1)c1ccccc1 [Loperamide, loperamide]
- Plasma Protein Binding % Literature Values (range): 95-97%
